# Several values for one entry are separate records, joined by “and”; a condition that tells them apart may be missing. Equal entries are not always repeated.
# Tested on: Trypanosoma brucei
# Test: DNDI: Inhibition of Human African Trypanosomiasis, SBRI 427, in vitro
# Type: functional, organism-based
# Details: not given
row,SMILES,IC50
1,C[C@@H]1C(NCc2coc(-c3ccccc3Br)n2)C[C@H]2C[C@@H]1C2(C)C (some centres not stated),1.95 µg/mL
2,CCOc1cccc(-c2nc(CNCCC3CCCN3C)co2)c1 (configuration not stated),1.78 µg/mL and 4.05 µg/mL
3,CCOc1ccccc1-c1nc(CNC2CCCCCCCCCCC2)co1,1.37 µg/mL
4,CN(Cc1coc(-c2cccc3ccccc23)n1)C1CCCCC1,1.3 µg/mL
5,CCC1CCCCN1Cc1coc(-c2cccc3ccccc23)n1 (configuration not stated),1.83 µg/mL
6,CC(C)(C)CNCc1coc(-c2ccc(C(C)(C)C)cc2)n1,2.86 µg/mL

# Same assay, conditions: Trypanosoma brucei, SBRI 427; read-out: IC50
row,IC50 [µg/mL],SMILES
1,1.39,O/N=C(\NC1CCC1)c1cccnc1Oc1ccccc1OCc1ccccc1
2,3.98,COc1ccccc1CN/C(=N\O)c1ccc(C)nc1Oc1cc(Cl)ccc1Cl
3,2.18,O/N=C(\NCc1c(F)cccc1F)c1cccnc1Oc1ccc(F)cc1
4,0.54,O/N=C(/c1cccnc1Oc1ccc(F)cc1Cl)N1CCCc2ccccc21
5,2.13,CCOc1ccccc1CN/C(=N\O)c1cccnc1Oc1ccc(Cl)cc1
6,1.96,COc1ccc(Oc2ncccc2/C(=N/O)NCC2CCCCC2)cc1
7,0.77,COc1cc(C)ccc1Oc1nc(C)ccc1/C(=N/O)NCc1ccccc1
8,1.44,CCOc1ccccc1CN/C(=N\O)c1cccnc1Oc1ccc(OC)cc1
9,> 5,Cc1ccc(/C(=N/O)NCC2CCCO2)c(Oc2cc(Cl)ccc2Cl)n1 (configuration not stated)
10,> 5,O/N=C(\NC1CCC1)c1ccc(Oc2ccc3ccccc3c2)nc1
11,0.37,CCc1ccc(Oc2ccc(/C(=N/O)NCC3CC3)cn2)cc1
12,1.32,CCC(CC)N/C(=N\O)c1cccnc1Oc1ccc(F)cc1
13,18.2,O/N=C(\NC1CCCC1)c1cccnc1Oc1ccccc1F
14,3.65,CCC(CC)N/C(=N\O)c1ccnc(Oc2ccc(OC)cc2)c1
15,0.59,O/N=C(\NCC1CCCCC1)c1cccnc1Oc1ccc(-n2cncn2)cc1
16,> 5,Cc1ccc(/C(=N/O)NCc2ccccc2F)c(Oc2cc(Cl)ccc2Cl)n1
17,> 5,C=CCc1ccc(Oc2cc(/C(=N/O)NCc3ccc(OC)cc3)ccn2)c(OC)c1
18,0.61,O/N=C(\NCC1CC1)c1cccnc1OCc1ccccc1
19,2.4,O/N=C(\NC1CCCCC1)c1ccnc(Oc2ccc(Cl)cc2)c1
20,0.66,CCOc1ccccc1CN/C(=N\O)c1cccnc1Oc1cc(Cl)ccc1Cl
21,> 5,COCC(C)N/C(=N\O)c1ccc(Oc2ccc3ccccc3c2)nc1 (configuration not stated)
22,2.32,COc1ccc(Oc2ncccc2/C(=N/O)NCc2cc(C)cc(C)c2)cc1

# The remaining lines, values behind:
row,SMILES,IC50 [µg/mL]
1,Cc1cccc(Oc2nc(C)ccc2/C(=N/O)NC2CCCCC2)c1,1.24
2,CSc1ccc(Oc2nc(C)ccc2/C(=N/O)NC2CCCC2)cc1C,0.96
3,O/N=C(\NCC1CCCCC1)c1ccnc(Oc2cccc3c2CCCC3)c1,5
4,C[C@@H]1C(NCc2coc(-c3ccccc3Br)n2)C[C@H]2C[C@@H]1C2(C)C (some centres not stated),1.22
5,O/N=C(\NCC1CC1)c1ccc(Oc2cccc3c2CCCC3)nc1,0.53
6,CC(C)c1cccc(Oc2cc(/C(=N/O)N3CCN(c4ccccc4)CC3)ccn2)c1,2.91
7,CC(C)N/C(=N\O)c1cccnc1OCC(C)(C)C,0.9
8,COc1ccc(Oc2cc(/C(=N/O)NC3CCCCC3)ccn2)cc1,3.73
9,O/N=C(\NC1CC1)c1ccc(Oc2ccc3oc4ccccc4c3c2)nc1,36.6
10,CC(C)COc1ncccc1/C(=N/O)NC1CCC(C)CC1 (configuration not stated),2.25
11,COc1ccc(Oc2cc(/C(=N/O)NC3CCC3)ccn2)cc1,4.78
12,COc1ccc(-c2nc(CNC[C@@H]3CC[C@H]4C[C@@H]3C4(C)C)co2)cc1,1.31
13,CCC(CC)N/C(=N\O)c1ccc(Oc2cc(Cl)ccc2Cl)nc1,1.35
14,Cc1ccc(/C(=N/O)NCC(C)C)c(Oc2cccc(F)c2)n1,1.37
15,c1ccc2c(-c3nc(CNCCCN4CCCC4)co3)cccc2c1,0.62
16,O/N=C(\NC1CCC1)c1ccnc(Oc2cc(Cl)ccc2Cl)c1,0.6
17,C[C@H]1C(NCc2coc(-c3cccc(F)c3)n2)C[C@@H]2C[C@H]1C2(C)C (some centres not stated),1.56

row,SMILES,IC50 [µg/mL]
1,CCC(C)(C)N/C(=N\O)c1ccc(Oc2cc(C)cc(C)c2)nc1,2.36
2,CN(/C(=N\O)c1ccnc(Oc2ccc(F)c(Cl)c2)c1)C1CCCCC1,> 5
3,CCC(CC)N/C(=N\O)c1ccc(C)nc1Oc1cccc(F)c1,1.56
4,Cc1ccc(-c2nc(CN(Cc3ccccn3)Cc3ccccn3)co2)cc1,> 5
5,O/N=C(/c1ccnc(Oc2cccc3c2CCCC3)c1)N1CCSCC1,> 5
6,COCCN/C(=N\O)c1ccc(C)nc1Oc1ccc(SC)c(C)c1,> 5
7,Cc1ccc(Oc2cc(/C(=N/O)NCC(C)(C)C)ccn2)c(C)c1,0.36
8,CCN(CC)CCCC(C)NCc1coc(-c2ccccc2Cl)n1 (configuration not stated),> 5
9,COc1cccc(-c2nc(Cn3ccnc3C=O)co2)c1,> 5
10,CSc1ccc(Oc2ccc(/C(=N/O)NC3CCC(C)CC3)cn2)cc1 (configuration not stated),1.35
11,COc1ccc(Oc2cc(/C(=N/O)NCC(C)C)ccn2)cc1,> 5
12,Cc1ccc(/C(=N/O)N2CCCc3ccccc32)c(Oc2cccc(F)c2)n1,2.54
13,Cc1cccc(Oc2nc(C)ccc2/C(=N/O)NCC(C)(C)C)c1,0.32
14,CCOc1ccccc1-c1nc(CNC2CCCCCCCCCCC2)co1,1.51
15,CN(Cc1coc(-c2cccc3ccccc23)n1)C1CCCCC1,2.01
16,CCC1CCCCN1Cc1coc(-c2cccc3ccccc23)n1 (configuration not stated),2.13
17,CC(C)(C)CNCc1coc(-c2ccc(C(C)(C)C)cc2)n1,1.62

# Source: ChEMBL document CHEMBL1857833, “Screening and optimization of specific chemical series against human African Trypanosomiasis (HAT)”
